# Test results taken from US20260201347A1, “ARTIFICIAL BIFUNCTIONAL ENZYME COMPRISING A MYELOPEROXIDASE ACTIVITY AND A GLUCOSE OXIDASE ACTIVITY AND APPLICATIONS THEREOF” (UNIVERSITÉ DE BORDEAUX, priority 2022, published 2026).
# Several values for one entry are separate records, joined by “and”; a condition that tells them apart may be missing. Identical values can stand only once. Like-named read-outs stand apart in the source and are kept apart here.
# How the values were obtained:
# [1] = target: T1, RbMPO-LGKRGAGA-GOx chimera (Rhodopirellula baltica myeloperoxidase, SEQ ID NO: 10; linker SEQ ID NO: 5; Penicillium amagasakiens glucose oxidase, SEQ ID NO: 12) (Penicillium amagasakiense, UniProt P81156); assay: Coupled active sites, HOCl production from glucose, APF assay (Table 9), linker LGKRGAGA; assay type: biochemical; conditions: trimer; fixed NaCl 20 mM, pH7.5
# T1 construct: 6His (in the pET21a vector behind the XhoI site); made in house; host or cells: E. coli BL21Star (DE3)
# Experimental: (§1) Each experiment was performed in triplicate.
# (§2) The activity of the two active sites was then assessed in conjunction to each other (FIG. 1).
# (§3) Briefly, the aim was to measure the production of HOCl from glucose and NaCl as respective substrates of the enzymes, using the APF probe. Two types of kinetics were performed: • i) kinetics at various concentrations of glucose and a fixed concentration of NaCl, and • ii) kinetics at various concentration of NaCl and a fixed concentration of glucose.
# [2] = target: T2, RbMPO-LEKREAEALEKREAEA-GOx chimera (Rhodopirellula baltica myeloperoxidase, SEQ ID NO: 10); linker SEQ ID NO: 6; Penicillium amagasakiens glucose oxidase, SEQ ID (Penicillium amagasakiense, UniProt P81156); assay: Coupled active sites, HOCl production from glucose, APF assay (Table 9), linker LEKREAEALEKREAEA; assay type: biochemical; conditions: dimer/monomer; fixed NaCl 20 mM, pH7.5
# T2 construct: 6His (in the pET21a vector behind the XhoI site); made in house; host or cells: E. coli BL21Star (DE3)
# Experimental: as §1, §2, §3
# T2 sequence (P81156 with tags, fused parts or gaps): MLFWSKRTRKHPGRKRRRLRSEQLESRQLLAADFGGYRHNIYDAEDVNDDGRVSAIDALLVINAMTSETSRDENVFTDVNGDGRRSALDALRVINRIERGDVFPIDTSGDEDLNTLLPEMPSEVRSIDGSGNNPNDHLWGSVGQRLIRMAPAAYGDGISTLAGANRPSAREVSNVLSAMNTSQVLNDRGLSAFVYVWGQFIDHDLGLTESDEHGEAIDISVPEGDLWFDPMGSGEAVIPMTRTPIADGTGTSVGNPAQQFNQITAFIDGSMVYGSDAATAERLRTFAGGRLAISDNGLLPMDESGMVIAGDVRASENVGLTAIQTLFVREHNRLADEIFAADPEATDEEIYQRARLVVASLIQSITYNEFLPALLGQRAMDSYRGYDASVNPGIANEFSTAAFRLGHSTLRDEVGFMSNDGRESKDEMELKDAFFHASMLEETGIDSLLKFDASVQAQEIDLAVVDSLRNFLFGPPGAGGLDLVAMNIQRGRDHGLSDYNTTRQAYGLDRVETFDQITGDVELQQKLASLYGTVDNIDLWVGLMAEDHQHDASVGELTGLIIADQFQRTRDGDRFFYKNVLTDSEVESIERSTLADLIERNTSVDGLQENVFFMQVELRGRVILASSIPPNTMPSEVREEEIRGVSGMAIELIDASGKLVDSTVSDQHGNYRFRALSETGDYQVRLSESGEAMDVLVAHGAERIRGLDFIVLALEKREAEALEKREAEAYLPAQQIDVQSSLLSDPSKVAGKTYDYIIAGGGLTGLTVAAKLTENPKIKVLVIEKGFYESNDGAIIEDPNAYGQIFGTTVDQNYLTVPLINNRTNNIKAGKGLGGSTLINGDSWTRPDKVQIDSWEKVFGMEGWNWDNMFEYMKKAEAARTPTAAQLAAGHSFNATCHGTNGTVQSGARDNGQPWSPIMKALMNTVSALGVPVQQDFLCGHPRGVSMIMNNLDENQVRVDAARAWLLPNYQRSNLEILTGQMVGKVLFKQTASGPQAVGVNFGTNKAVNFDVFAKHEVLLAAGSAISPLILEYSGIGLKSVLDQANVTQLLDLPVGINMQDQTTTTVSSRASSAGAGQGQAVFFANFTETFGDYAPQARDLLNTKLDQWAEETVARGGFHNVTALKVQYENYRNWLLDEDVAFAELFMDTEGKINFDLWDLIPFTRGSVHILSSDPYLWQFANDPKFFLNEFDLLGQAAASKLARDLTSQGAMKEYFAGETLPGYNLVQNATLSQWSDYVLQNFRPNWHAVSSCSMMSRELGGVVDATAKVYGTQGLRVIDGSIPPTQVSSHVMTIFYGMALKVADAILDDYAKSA
# [3] = target: T3, RbMPO-LEGGEAEA-GOx chimera (Rhodopirellula baltica myeloperoxidase, SEQ ID NO: 10; linker SEQ ID NO: 4; Penicillium amagasakiens glucose oxidase, SEQ ID NO: 12) (Penicillium amagasakiense, UniProt P81156); assay: Coupled active sites, HOCl production from glucose, APF assay (Table 9), linker LEGGEAEA; assay type: biochemical; parameters: 6His (in the pET21a vector behind the XhoI site); made in house; host or cells: E. coli BL21Star (DE3)
# Experimental: as §1, §2, §3
# [4] = target: T4, RbMPO-GOx chimera, no linker (Rhodopirellula baltica myeloperoxidase, SEQ ID NO: 10, fused to Penicillium amagasakiens glucose oxidase, SEQ ID NO: 12) (Penicillium amagasakiense, UniProt P81156); assay: Coupled active sites, HOCl production from glucose, APF assay (Table 9), chimera without linker; assay type: biochemical; parameters: heme and FAD reconstituted; monomer; GOx mature part (P81156 19-605); conditions: monomer; fixed NaCl 20 mM, pH7.5
# Experimental: as §1, §2, §3
# Target sequence in this assay (P81156 19-605, change not shown): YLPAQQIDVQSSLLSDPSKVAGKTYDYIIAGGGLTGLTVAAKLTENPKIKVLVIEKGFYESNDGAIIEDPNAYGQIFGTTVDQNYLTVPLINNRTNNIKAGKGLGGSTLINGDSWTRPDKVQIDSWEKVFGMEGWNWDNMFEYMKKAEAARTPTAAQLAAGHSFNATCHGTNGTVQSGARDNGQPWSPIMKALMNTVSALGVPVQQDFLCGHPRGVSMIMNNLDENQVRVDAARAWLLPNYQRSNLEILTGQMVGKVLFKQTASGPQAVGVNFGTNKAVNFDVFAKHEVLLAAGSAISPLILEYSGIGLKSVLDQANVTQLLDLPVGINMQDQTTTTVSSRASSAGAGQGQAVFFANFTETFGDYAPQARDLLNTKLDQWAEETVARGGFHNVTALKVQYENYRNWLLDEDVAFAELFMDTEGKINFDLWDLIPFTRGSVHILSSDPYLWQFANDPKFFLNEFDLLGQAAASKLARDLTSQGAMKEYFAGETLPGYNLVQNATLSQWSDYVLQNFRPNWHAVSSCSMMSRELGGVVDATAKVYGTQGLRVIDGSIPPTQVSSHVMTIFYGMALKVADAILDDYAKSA
# [5] = target: T3, RbMPO-LEGGEAEA-GOx chimera (Rhodopirellula baltica myeloperoxidase, SEQ ID NO: 10; linker SEQ ID NO: 4; Penicillium amagasakiens glucose oxidase, SEQ ID NO: 12); conditions: monomer 1, NaSCN as a substrate, 50 mM glucose, pH6, 37° C.
# Experimental: Initial rate measurements under steady state conditions were made with a BioLogic SFM400 stopped-flow by using a single-mixing mode and Xe/Hg lamp and a TC100/10 cell. One syringe was filled with the chimera and another one with glucose and NaSCN. The concentrations of the chimera and glucose were fixed (300 nM and 50 mM, respectively), and measurement was carried out at 37° C. and at 240 nm. The appearance of −OSCN (hypothiocyanate) was measured at 240 nm at 37° C. in a 50 mM pH6 sodium phosphate buffer. At least five shots of 120 s were performed for each value of the NaSCN substrate range with the following sample period: 20 μs, 20 ms, 20 ms with 2000 points per period. Slopes were calculated from shots average for each concentration and kss (s^−1) were determined using slopes with the following formula:
# The molar extinction coefficient of −OSCN is ε−OSCN=[…]. Collecting data were analysed with Origin software and kss values were fitted with Michaëlis-Menten equation.
# [6] = target: RbMPO-LEKREAEALEKREAEA-GOx chimera (Rhodopirellula baltica myeloperoxidase, SEQ ID NO: 10); linker SEQ ID NO: 6; Penicillium amagasakiens glucose oxidase, SEQ ID (Penicillium amagasakiense, UniProt P81156); conditions: 20 mM NaCl, pH7.5; for Km: read-out: KM H2O2; for Ki: read-out: Ki H2O2, substrate inhibition
# Experimental: The fluorescent probe aminophenyl fluorescein (APF) (λexcitation=485 nm and λemission=525 nm) was used to measure the HOCl production by the chimera, as a measure of its chlorination activity. […] For all experiments, 10 μM APF was used in each assay with 50 mM NaPi buffer pH7.5 QSP 20 μL (384-well plate). Each experiment was performed in triplicate. A 10-30 min. kinetic was performed for each range value and the increase rate of fluorescence intensity was compared to the standard fluorescein range. The measured fluorescence per second was thus proportional to the amount of fluorescein, which in turn was proportional to the amount of HOCl produced by the chimeras.
# [7] = target: RbMPO-LEKRPEAEA-GOx chimera (Rhodopirellula baltica myeloperoxidase, SEQ ID NO: 10); linker SEQ ID NO: 8; Penicillium amagasakiens glucose oxidase, SEQ ID NO: 12 (Penicillium amagasakiense, UniProt P81156); conditions: 20 mM NaCl, pH7.5; for Km: read-out: KM H2O2; for Ki: read-out: Ki H2O2, substrate inhibition
# Experimental: (§4) The fluorescent probe aminophenyl fluorescein (APF) (λexcitation=485 nm and λemission=525 nm) was used to measure the HOCl production by the chimera, as a measure of its chlorination activity. Three tests were performed: (1) at different glucose concentrations (0, 1, 2, 3, 4, 5, 6, 8, 10, 15, 20 mM) with fixed concentrations of chimera (1 μM) and NaCl (20 mM); (2) at different NaCl concentrations (0, 10, 20, 50, 100, 250, 500, 750 μM and 1 mM) with fixed concentrations of chimera (1 μM) and glucose (20 mM); (3) at different H2O2 concentrations (0, 0.01, 0.02, 0.05, 0.079, 0.1, 0.25, 0.5, 0.75, 1, 2, 4, 6, 8, 10, 20, 40, 60, 80, 100, 200, 500 mM) with fixed concentrations of chimera (1 μM) and NaCl (20 mM). For all experiments, 10 μM APF was used in each assay with 50 mM NaPi buffer pH7.5 QSP 20 μL (384-well plate). Each experiment was performed in triplicate. A 10-30 min. kinetic was performed for each range value and the increase rate of fluorescence intensity was compared to the standard fluorescein range. The measured fluorescence per second was thus proportional to the amount of fluorescein, which in turn was proportional to the amount of HOCl produced by the chimeras.
# (§5) Steady-state kinetic parameters were determined by adjustment of experimental data to the following equations depending on the appearance of saturation curves: […]
# (§6) In order to determine the RbMPO activity of the chimeras, a H2O2 concentration range was performed at a fixed concentration of NaCl. HOCl reacted with APF probe and apparition of fluorescein was monitored.
# [8] = target: RbMPO-LEKREAEA-GOx chimera (Rhodopirellula baltica myeloperoxidase, SEQ ID NO: 10; linker SEQ ID NO: 7; Penicillium amagasakiens glucose oxidase, SEQ ID NO: 12) (Penicillium amagasakiense, UniProt P81156); conditions: trimer, 20 mM NaCl, pH7.5
# Sequence of RbMPO-LEKREAEA-GOx chimera (Rhodopirellula baltica myeloperoxidase, SEQ ID NO: 10; linker SEQ ID NO: 7; Penicillium amagasakiens glucose oxidase, SEQ ID NO: 12) (P81156 with tags, fused parts or gaps): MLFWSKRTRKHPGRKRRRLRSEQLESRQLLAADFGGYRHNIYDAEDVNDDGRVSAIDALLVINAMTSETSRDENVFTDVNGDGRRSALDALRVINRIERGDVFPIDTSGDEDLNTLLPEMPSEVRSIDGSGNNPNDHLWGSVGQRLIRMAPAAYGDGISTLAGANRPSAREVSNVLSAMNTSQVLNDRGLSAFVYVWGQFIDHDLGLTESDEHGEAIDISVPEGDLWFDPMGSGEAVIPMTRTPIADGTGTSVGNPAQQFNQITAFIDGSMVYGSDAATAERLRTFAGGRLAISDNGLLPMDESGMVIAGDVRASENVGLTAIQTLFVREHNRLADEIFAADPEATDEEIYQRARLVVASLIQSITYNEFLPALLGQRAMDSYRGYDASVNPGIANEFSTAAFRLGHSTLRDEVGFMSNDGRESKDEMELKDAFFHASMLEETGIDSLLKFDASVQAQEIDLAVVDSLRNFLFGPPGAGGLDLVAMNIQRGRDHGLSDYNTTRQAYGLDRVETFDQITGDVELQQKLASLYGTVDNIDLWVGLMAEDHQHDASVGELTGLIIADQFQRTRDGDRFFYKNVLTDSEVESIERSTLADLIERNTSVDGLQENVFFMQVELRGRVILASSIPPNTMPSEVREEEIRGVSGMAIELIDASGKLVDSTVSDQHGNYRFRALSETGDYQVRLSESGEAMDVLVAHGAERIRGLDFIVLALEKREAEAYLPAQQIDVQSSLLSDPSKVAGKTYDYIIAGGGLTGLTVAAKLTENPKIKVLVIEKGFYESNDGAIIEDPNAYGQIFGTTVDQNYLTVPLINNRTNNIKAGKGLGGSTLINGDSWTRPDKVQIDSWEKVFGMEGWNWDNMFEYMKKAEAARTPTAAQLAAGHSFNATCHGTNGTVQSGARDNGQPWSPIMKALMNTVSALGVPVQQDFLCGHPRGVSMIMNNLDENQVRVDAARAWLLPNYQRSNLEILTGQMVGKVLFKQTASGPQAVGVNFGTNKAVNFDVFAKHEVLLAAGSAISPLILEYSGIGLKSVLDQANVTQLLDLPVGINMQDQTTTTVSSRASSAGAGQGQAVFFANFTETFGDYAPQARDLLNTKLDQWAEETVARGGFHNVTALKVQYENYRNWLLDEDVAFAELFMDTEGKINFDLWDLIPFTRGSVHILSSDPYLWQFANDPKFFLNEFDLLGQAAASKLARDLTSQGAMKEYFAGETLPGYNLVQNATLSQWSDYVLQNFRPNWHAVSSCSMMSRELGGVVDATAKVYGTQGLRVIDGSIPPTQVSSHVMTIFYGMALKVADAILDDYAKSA
# Experimental: as §4, §5, §6
# [9] = target: T3, RbMPO-LEGGEAEA-GOx chimera (Rhodopirellula baltica myeloperoxidase, SEQ ID NO: 10; linker SEQ ID NO: 4; Penicillium amagasakiens glucose oxidase, SEQ ID NO: 12)
# Experimental: as §4, §5, §6
# [10] = target: RbMPO-GGGGGGGG-GOx chimera (Rhodopirellula baltica myeloperoxidase, SEQ ID NO: 10; linker SEQ ID NO: 9; Penicillium amagasakiens glucose oxidase, SEQ ID NO: 12) (Penicillium amagasakiense, UniProt P81156); conditions: 20 mM NaCl, pH7.5; for Km: read-out: KM H2O2; for Ki: read-out: Ki H2O2, substrate inhibition
# Sequence of RbMPO-GGGGGGGG-GOx chimera (Rhodopirellula baltica myeloperoxidase, SEQ ID NO: 10; linker SEQ ID NO: 9; Penicillium amagasakiens glucose oxidase, SEQ ID NO: 12) (P81156 with tags, fused parts or gaps): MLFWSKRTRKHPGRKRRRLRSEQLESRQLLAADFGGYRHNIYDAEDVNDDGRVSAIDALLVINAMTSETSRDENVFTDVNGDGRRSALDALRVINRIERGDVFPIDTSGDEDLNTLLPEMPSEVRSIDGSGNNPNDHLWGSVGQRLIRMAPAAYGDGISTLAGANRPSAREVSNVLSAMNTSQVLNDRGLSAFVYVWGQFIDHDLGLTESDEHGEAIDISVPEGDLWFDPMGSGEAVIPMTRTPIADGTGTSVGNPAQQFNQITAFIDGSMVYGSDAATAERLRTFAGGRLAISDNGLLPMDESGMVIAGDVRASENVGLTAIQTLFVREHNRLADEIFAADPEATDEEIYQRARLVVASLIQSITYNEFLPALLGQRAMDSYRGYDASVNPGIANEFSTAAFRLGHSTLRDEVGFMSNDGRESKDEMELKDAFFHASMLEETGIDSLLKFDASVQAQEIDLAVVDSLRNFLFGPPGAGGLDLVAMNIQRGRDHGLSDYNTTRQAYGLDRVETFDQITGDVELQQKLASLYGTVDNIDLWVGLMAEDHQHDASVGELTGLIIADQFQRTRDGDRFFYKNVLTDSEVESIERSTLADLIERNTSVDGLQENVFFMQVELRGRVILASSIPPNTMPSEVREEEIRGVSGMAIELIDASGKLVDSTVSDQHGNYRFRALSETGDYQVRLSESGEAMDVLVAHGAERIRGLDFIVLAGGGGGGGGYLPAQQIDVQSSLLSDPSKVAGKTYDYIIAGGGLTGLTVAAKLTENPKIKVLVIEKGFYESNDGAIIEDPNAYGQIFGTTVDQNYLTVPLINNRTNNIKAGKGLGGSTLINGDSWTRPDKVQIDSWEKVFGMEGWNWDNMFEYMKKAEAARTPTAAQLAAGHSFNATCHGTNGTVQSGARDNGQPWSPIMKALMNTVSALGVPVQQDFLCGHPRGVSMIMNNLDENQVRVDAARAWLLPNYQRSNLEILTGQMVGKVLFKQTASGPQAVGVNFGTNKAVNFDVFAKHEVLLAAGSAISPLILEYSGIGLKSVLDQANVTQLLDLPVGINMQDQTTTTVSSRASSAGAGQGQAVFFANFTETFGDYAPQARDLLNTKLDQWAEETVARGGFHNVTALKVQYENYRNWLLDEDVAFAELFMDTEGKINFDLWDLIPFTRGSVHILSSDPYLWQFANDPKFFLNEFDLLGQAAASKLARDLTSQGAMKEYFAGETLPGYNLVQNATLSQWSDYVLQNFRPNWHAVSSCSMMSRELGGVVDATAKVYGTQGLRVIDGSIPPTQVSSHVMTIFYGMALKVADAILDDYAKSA
# Experimental: as §4, §5, §6
# [11] = target: T4, RbMPO-GOx chimera, no linker (Rhodopirellula baltica myeloperoxidase, SEQ ID NO: 10, fused to Penicillium amagasakiens glucose oxidase, SEQ ID NO: 12); conditions: monomer, 20 mM NaCl, pH7.5
# Experimental: as §4, §5, §6
# [12] = tested on: RbMPO-LGKRGAGA-GOx chimera (Rhodopirellula baltica myeloperoxidase, SEQ ID NO: 10; linker SEQ ID NO: 5; Penicillium amagasakiens glucose oxidase, SEQ ID NO: 12); conditions: result in words
# Experimental: as §4, §5
# [13] = mixture of oligomers, 15 mM glucose and 500 mM NaCl
# [14] = read-out: Ki H2O2, substrate inhibition
smiles,measurement,setting,value
OC[C@H]1OC(O)[C@H](O)[C@@H](O)[C@@H]1O (stereo partly drawn) [glucose],kcat/KM glucose,[1],1.1 ± 0.8 M⁻¹ s⁻¹
same,kcat/KM glucose,[2],2.47 ± 1.58 M⁻¹ s⁻¹
same,kss,[3]; [13],around 10^−3 s^−1
same,kss/[Glucose],[3]; [13],10^−3 M^−1·s^−1
same,kcat/KM glucose,"[3]; monomer 2, fixed NaCl 20 mM, pH7.5",2.73 ± 1.5 M⁻¹ s⁻¹
same,Km,[4],3020 ± 770 µM
same,kcat,[4],3.09e-05 s⁻¹
"N#CS [SCN, thiocyanate]",kcat,[5],0.31 s⁻¹
same,kcat/KM,[5],1409 M⁻¹ s⁻¹
same,Km,[5]; read-out: KM SCN,220 µM
"OO [H2O2, hydrogen peroxide]",kcat,[6]; dimer/monomer,0.00374 s⁻¹
same,kcat/KM,[6]; dimer/monomer,1508 ± 19.4 M⁻¹ s⁻¹ and 1508 ± 107 M⁻¹ s⁻¹
same,kss/[H2O2],[6]; excluded,0.0051 ± 0.00035 M⁻¹ s⁻¹
same,Km,[6]; dimer/monomer,2.48 µM
same,Km,[6]; trimer,13 ± 1 µM
same,Ki,[6]; dimer/monomer,4.63 ± 1.05 mM
same,Ki,[6]; trimer,0.597 ± 0.211 mM
same,kcat,[6]; trimer,0.0047 s⁻¹
same,kcat/KM,[6]; trimer,361.5 ± 64.5 M⁻¹ s⁻¹
same,kcat,[7]; dimer/monomer,0.000576 s⁻¹
same,kcat/KM,[7]; dimer/monomer,16.08 ± 17.15 M⁻¹ s⁻¹
same,kcat,[7]; excluded,0.0001553 s⁻¹
same,kcat/KM,[7]; excluded,6.82 ± 4.27 M⁻¹ s⁻¹
same,Km,[7]; dimer/monomer,36 ± 25 µM
same,Km,[7]; excluded,23 ± 11 µM
same,Km,[7]; trimer,704 ± 448 µM
same,Ki,[7]; dimer/monomer,6.3 ± 3.33 mM
same,Ki,[7]; excluded,17.3 ± 10.6 mM
same,Ki,[7]; trimer,35.9 ± 22.2 mM
same,kcat,[7]; trimer,0.0003 s⁻¹
same,kcat/KM,[7]; trimer,0.426 ± 0.365 M⁻¹ s⁻¹
same,Km,[8]; read-out: KM H2O2,45 ± 15 µM
same,Ki,[8]; [14],2.12 ± 1.7 mM
same,kcat,[8],0.000587 s⁻¹
same,kcat/KM,[8],13.04 ± 6.51 M⁻¹ s⁻¹
same,kcat,"[9]; monomer 1, 20 mM NaCl, pH7.5",0.0003086 s⁻¹
same,kcat/KM,"[9]; monomer 1, 20 mM NaCl, pH7.5",34.2 ± 19.4 M⁻¹ s⁻¹
same,Km,"[9]; read-out: KM H2O2, monomer 1, 20 mM NaCl, pH7.5",9.02 µM
same,Ki,"[9]; read-out: Ki H2O2, monomer 1, 20 mM NaCl, pH7.5, substrate inhibition",34.9 ± 12.6 mM
same,inhibition by H2O2,[9]; result in words,weak inhibition
same,kcat,[10]; dimer/monomer,0.00418 s⁻¹
same,kcat/KM,[10]; dimer/monomer,363.5 ± 382.3 M⁻¹ s⁻¹
same,kcat,[10]; excluded,0.0001682 s⁻¹
same,kcat/KM,[10]; excluded,1 ± 0.6 M⁻¹ s⁻¹ and 0.998 ± 0.603 M⁻¹ s⁻¹
same,kcat,[10]; monomer,0.0001798 s⁻¹
same,kcat/KM,[10]; monomer,38.3 ± 23.6 M⁻¹ s⁻¹
same,Km,[10]; dimer/monomer,11.5 µM
same,Km,[10]; excluded,168 ± 81 µM
same,Km,[10]; monomer,4.7 µM
same,Km,[10]; trimer,2.86 µM
same,Ki,[10]; dimer/monomer,0.0329 mM
same,Ki,[10]; monomer,13.1 ± 4.9 mM
same,Ki,[10]; trimer,5.92 ± 3.22 mM
same,kcat,[10]; trimer,0.0005086 s⁻¹
same,kcat/KM,[10]; trimer,177.8 ± 133.1 M⁻¹ s⁻¹
same,kcat,[11],0.0012 s⁻¹
same,kcat/KM,[11],4.44 ± 3.15 M⁻¹ s⁻¹
same,Km,[11]; read-out: KM H2O2,270 ± 140 µM
same,Ki,[11]; [14],1.91 ± 0.48 mM
same,inhibition by H2O2,[12],weak inhibition
